According to patent publication US11220500B2, “Crystalline form of Valbenazine dibesylate” (Apotex Inc., priority 2018, dated 2022):
Converted amounts (≈) assume the structure as drawn. Structures can show the parent of a compound that is named as a salt. Where two headings read alike, the source gives them in different places.

How the values were obtained:
[1] = 24 h
Method: (§1) The solubility of Valbenazine free base, Valbenazine ditosylate and Valbenazine dibesylate were measured in buffer solutions (pH 1.2 to 6.8) in a temperature-controlled water bath at 37° C. with stirring using magnetic stir bars at 325 rpm (rotations per minute). Each Valbenazine sample was weighed and transferred into a 20 mL vial and then 10 mL of buffer was added. The samples were shaken for 1 minute. If all sample dissolved, more sample was added until a saturated solution was obtained. The samples were then equilibrated at 37° C. with stirring using magnetic stir bars at 325 rpm for 24 hours. After equilibration, samples were filtered through 0.45 μm PVDF filters and further diluted with a methanol/water (60/40 v/v) solution. Samples were analyzed by HPLC against known concentrations of standards. The pH values of the solutions were measured after completion of testing.

[2] = physchem; details: 37 °C, thermodynamic from solid, Solubility expressed as Valbenazine free base
Method: as §1

[3] = Form stability by PXRD of uncapped samples in a 27° C./60% RH stability chamber; type: physicochemical
Method: Valbenazine dibesylate Form APO-I can be characterized by a PXRD diffractogram comprising, among other peaks, characteristic peaks, expressed in degrees 2θ (±0.2°), at 6.3°, 9.8° and 15.6°. Preferably, the PXRD diffractogram further comprises at least three peaks, expressed in degrees 2θ (±0.2°), selected from the group consisting of 5.3°, 7.7°, 8.5°, 12.5°, 14.0°, 16.8°, 17.1°, 17.8°, 18.6° and 19.7°. More preferably, the PXRD diffractogram further comprises peaks, expressed in degrees 2θ (±0.2°), at 5.3°, 7.7°, 8.5°, 12.5°, 14.0°, 16.8°, 17.1°, 17.8°, 18.6° and 19.7°.
Data were acquired on a PANanalytical X'Pert Pro MPD diffractometer with fixed divergence slits and an X'Celerator detector. The diffractometer was configured in Bragg-Brentano geometry; data was collected over a 2θ range of 3° to 40° using CuKα radiation at a power of 40 mA and 45 kV. CuKβ radiation was removed using a divergent beam nickel filter. A step size of 0.017°, and a step time of 40 seconds, was used. Raw data were evaluated using X'Pert High Score Plus. Samples were rotated to reduce preferred orientation effects. Samples were lightly ground prior to analysis.

[4] = Comparative solubility of Valbenazine forms in buffer solutions (pH 1.2 to 6.8) at 37° C., HPLC; details: equilibrated 24 hours
Method: as §1

Difference of aqueous solubility from that of Valbenazine ditosylate of the approved drug product [1]	Solubility expressed as Valbenazine free base ([1]; pH 1.2)	Solubility expressed as Valbenazine free base ([1]; pH 6.8)	solubility at 24 h ([2]; pH 4.5, aqueous buffer)	Form stability ([3]; open exposure to 27° C./60% RH for at least 5 months)	Change in the crystalline form (PXRD) ([3]; uncapped samples, 27° C./60% RH stability chamber, at least 20 weeks)	Solubility expressed as Valbenazine free base ([1]; pH 4.5)	solubility at 24 h ([2]; pH 1.2, simulated gastric fluid)	Solubility expressed as Valbenazine free base ([4]; buffer pH 1.2, 37° C.)	Solubility expressed as Valbenazine free base ([4]; buffer pH 4.5, 37° C.)	Solubility expressed as Valbenazine free base ([4]; buffer pH 6.8, 37° C.)	Molecule
≤ 10 % units	22.4 mg/mL	8.1 mg/mL	18.5 mg/mL	exhibits form stability	no change in the crystalline form						COc1cc2c(cc1OC)[C@H]1C[C@@H](OC(=O)[C@@H](N)C(C)C)[C@H](CC(C)C)CN1CC2 [Dibesylate salt, Valbenazine dibesylate]
		1.2 mg/mL (≈ 2.87 mM)				21.6 mg/mL (≈ 51.6 mM)	21.3 mg/mL (≈ 50.9 mM)				COc1cc2c(cc1OC)[C@H]1C[C@@H](OC(=O)[C@@H](N)C(C)C)[C@H](CC(C)C)CN1CC2 [Free base, (2R,3R,11bR)-1,3,4,6,7,11b-hexahydro-9,10-dimethoxy-3-(2-methylpropyl)-2H-benzo[a]quinolizin-2-yl-L-valine ester]
								20.9 mg/mL	17.7 mg/mL	7.6 mg/mL	Valbenazine ditosylate [Ditosylate salt]
